In the supplement of paper PMC10307832:

Assays:
Experiment in all cases: relative viability (nuclei count vs DMSO), 5 days (fraction); higher = more cells survive
JZL-184 + Pictilisib = compound: C1CN(CCC1C(C2=CC3=C(C=C2)OCO3)(C4=CC5=C(C=C4)OCO5)O)C(=O)OC6=CC=C(C=C6)[N+](=O)[O-] [JZL-184] + CS(=O)(=O)N1CCN(Cc2cc3nc(-c4cccc5[nH]ncc45)nc(N4CCOCC4)c3s2)CC1 [Pictilisib] (partner 1 µM)
Outline: (§1)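 Medians of duplicate plates are given as relative viability. That measure is the nuclei count in treated wells divided by the count in vehicle wells. Counts were taken on 4× images of lung cancer cell lines in 1536-well plates, 5 days after pin-tool dosing the day after seeding with one drug alone or a fixed anchor-drug dose plus five library-drug doses (not always all listed) in √10 steps.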

JZL-184 + Bortezomib = compound: C1CN(CCC1C(C2=CC3=C(C=C2)OCO3)(C4=CC5=C(C=C4)OCO5)O)C(=O)OC6=CC=C(C=C6)[N+](=O)[O-] [JZL-184] + CC(C)C[C@H](NC(=O)[C@H](Cc1ccccc1)NC(=O)c1cnccn1)B(O)O [Bortezomib] (partner 0.002 µM)
Outline: as §1

JZL-184 + Lapatinib = compound: C1CN(CCC1C(C2=CC3=C(C=C2)OCO3)(C4=CC5=C(C=C4)OCO5)O)C(=O)OC6=CC=C(C=C6)[N+](=O)[O-] [JZL-184] + CS(=O)(=O)CCNCc1ccc(-c2ccc3ncnc(Nc4ccc(OCc5cccc(F)c5)c(Cl)c4)c3c2)o1 [Lapatinib] (partner 2 µM)
Outline: as §1

JZL-184 + Pemetrexed = compound: C1CN(CCC1C(C2=CC3=C(C=C2)OCO3)(C4=CC5=C(C=C4)OCO5)O)C(=O)OC6=CC=C(C=C6)[N+](=O)[O-] [JZL-184] + Nc1nc2[nH]cc(CCc3ccc(C(=O)N[C@@H](CCC(=O)O)C(=O)O)cc3)c2c(=O)[nH]1 [Pemetrexed] (partner 0.2 µM)
Outline: as §1

JZL-184 + Palbociclib = compound: C1CN(CCC1C(C2=CC3=C(C=C2)OCO3)(C4=CC5=C(C=C4)OCO5)O)C(=O)OC6=CC=C(C=C6)[N+](=O)[O-] [JZL-184] + CC(=O)c1c(C)c2cnc(Nc3ccc(N4CCNCC4)cn3)nc2n(C2CCCC2)c1=O [Palbociclib] (partner 0.5 µM)
Outline: as §1

Row | Cell Line | relative viability (JZL-184 + Pictilisib; first compound 0.04 µM) | relative viability (JZL-184 + Pictilisib; first compound 0.4 µM) | relative viability (JZL-184 + Pictilisib; first compound 1.265 µM) | relative viability (JZL-184 + Pictilisib; first compound 4 µM) | relative viability (JZL-184 + Bortezomib; first compound 0.04 µM) | relative viability (JZL-184 + Bortezomib; first compound 0.4 µM) | relative viability (JZL-184 + Bortezomib; first compound 1.265 µM) | relative viability (JZL-184 + Bortezomib; first compound 4 µM) | relative viability (JZL-184 + Lapatinib; first compound 0.04 µM) | relative viability (JZL-184 + Lapatinib; first compound 0.4 µM) | relative viability (JZL-184 + Lapatinib; first compound 1.265 µM) | relative viability (JZL-184 + Lapatinib; first compound 4 µM) | relative viability (JZL-184 + Pemetrexed; first compound 0.04 µM) | relative viability (JZL-184 + Pemetrexed; first compound 0.4 µM) | relative viability (JZL-184 + Pemetrexed; first compound 1.265 µM) | relative viability (JZL-184 + Pemetrexed; first compound 4 µM) | relative viability (JZL-184 + Palbociclib; first compound 0.4 µM) | relative viability (JZL-184 + Palbociclib; first compound 1.265 µM) | relative viability (JZL-184 + Palbociclib; first compound 4 µM) | relative viability (JZL-184 + Palbociclib; first compound 0.04 µM)
1 | NCI-H2347 | 0.768 | 0.654 | 0.61 | 0.688 | 1.12 | 0.717 | 1.05 | 0.906 | 1.1 | 0.884 | 0.953 | 0.815 | 0.388 | 0.368 | 0.402 | 0.45 | 0.398 | 0.407 | 0.443 | 
2 | NCI-H2405 | 0.531 | 0.444 | 0.493 | 0.486 | 1.05 | 0.943 | 1.06 | 0.769 | 1.17 | 1.04 | 1.21 | 0.96 | 1.09 | 0.999 | 1.14 | 1.05 | 0.409 | 0.541 | 0.489 | 0.594
3 | NCI-H3122 | 0.678 | 0.602 | 0.59 | 0.581 | 1.01 | 0.93 | 0.982 | 1.03 | 0.959 | 0.916 | 1.01 | 1.08 | 0.187 | 0.18 | 0.2 | 0.204 | 0.181 | 0.22 | 0.208 | 0.168
4 | PC-3 [JPC-3] | 0.773 | 0.735 | 0.773 | 0.738 | 0.988 | 0.895 | 0.835 | 0.801 | 0.521 | 0.439 | 0.441 | 0.435 | 0.994 | 1.13 | 1.27 | 1.05 | 0.558 | 0.485 | 0.536 | 0.573
5 | PC-14 | 0.867 | 0.619 | 0.722 | 0.589 | 0.808 | 0.972 | 0.781 | 0.77 | 0.39 | 0.316 | 0.325 | 0.327 | 0.126 | 0.128 | 0.15 | 0.114 | 0.49 | 0.517 | 0.519 | 0.659
6 | RERF-LC-KJ | 0.508 | 0.513 | 0.676 | 0.47 | 1.15 | 0.96 | 1.11 | 1.04 | 0.961 | 0.835 | 0.874 | 0.772 | 0.496 | 0.463 | 0.468 | 0.44 | 1.14 | 1.17 | 0.982 | 1.17
7 | SK-LU-1 | 0.631 | 0.517 | 0.7 | 0.611 | 0.929 | 1.06 | 1.29 | 1.16 | 1.21 | 0.814 | 0.962 | 0.822 | 1.04 | 0.887 | 1 | 0.881 | 0.393 | 0.433 | 0.405 | 0.387
8 | SW 1573 | 0.609 | 0.364 | 0.491 | 0.498 | 1.14 | 0.935 | 1.08 | 0.976 | 1.25 | 1.15 | 1.25 | 1.01 | 1.11 | 0.842 | 0.915 | 0.876 | 0.328 | 0.45 | 0.383 | 0.458
9 | UMC-11 | 1.16 | 0.808 | 0.984 | 0.824 | 0.79 | 0.723 | 0.571 | 0.673 | 1.26 | 0.898 | 1.05 | 0.947 | 0.916 | 0.755 | 0.876 | 0.79 | 0.339 | 0.366 | 0.35 | 0.327
